Experimental data published in ChEMBL document CHEMBL1201862, “PubChem BioAssay data set” (2004).
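96-well plates; 48 h exposure; 5 concentrations. Endpoints by linear interpolation between flanking doses. Not reached: highest tested concentration assigned. GI50: concentration for 50% inhibition of growth.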 Calls of active or inactive are those of the source. Cut-off read from the data, not from the text of the source: active = GI50 up to about 1.1 µM and inactive = higher.

What was measured:
Assay in all cases: NCI tumour cell line growth inhibition, 48 h
SK-MEL-5 = test system: SK-MEL-5
HOP-62 = test system: HOP-62
HOP-92 = test system: HOP-92
HCT-116 = test system: HCT-116
NCI-H23 = test system: NCI-H23
TK-10 = test system: TK-10
OVCAR-3 = test system: OVCAR-3
HT-29 = test system: HT-29
SK-OV-3 = test system: SK-OV-3
XF498 = test system: XF498
OVCAR-5 = test system: OVCAR-5
RPMI-8226 = test system: RPMI-8226
UACC-62 = test system: UACC-62
MOLT-4 = test system: MOLT-4
SK-MEL-2 = test system: SK-MEL-2
A498 = test system: A498
SF-539 = test system: SF-539
PC-3 = test system: PC-3
MCF7 = test system: MCF7
MDA-MB-231 = test system: MDA-MB-231

| SMILES | GI50 (SK-MEL-5) | GI50 (HOP-62) | GI50 (HOP-92) | GI50 (HCT-116) | GI50 (NCI-H23) | GI50 (TK-10) | GI50 (OVCAR-3) | GI50 (HT-29) | GI50 (SK-OV-3) | GI50 (XF498) | GI50 (OVCAR-5) | GI50 (RPMI-8226) | GI50 (UACC-62) | GI50 (MOLT-4) | GI50 (SK-MEL-2) | GI50 (A498) | GI50 (SF-539) | GI50 (PC-3) | GI50 (MCF7) | GI50 (MDA-MB-231) |
| --- | --- | --- | --- | --- | --- | --- | --- | --- | --- | --- | --- | --- | --- | --- | --- | --- | --- | --- | --- | --- |
| O=C(NC(=S)Nc1ccccc1)c1ccc([N+](=O)[O-])cc1 | 36 µM (inactive) | > 100 µM (inactive) | 35.9 µM (inactive) | > 100 µM (inactive) | 4.8 µM (inactive) | > 100 µM (inactive) | 92.5 µM (inactive) | 80.9 µM (inactive) | 50.1 µM (inactive) | > 100 µM (inactive) | 2.28 µM (inactive) | 28.6 µM (inactive) | 75.7 µM (inactive) | 71.8 µM (inactive) |  |  |  |  |  |  |
| Cc1c(C(=O)C/C(=N\O)C(=O)Nc2cc(Cl)c(Cl)cc2Cl)[n+]([O-])c2ccccc2[n+]1[O-] | 5.47 µM (inactive) | 23.3 µM (inactive) | 19.2 µM (inactive) | 4.85 µM (inactive) | 20.9 µM (inactive) | 29.2 µM (inactive) | 2.37 µM (inactive) | 15.2 µM (inactive) | 43.7 µM (inactive) | 25.9 µM (inactive) | 24.4 µM (inactive) | 9.33 µM (inactive) | 4.57 µM (inactive) | 13.3 µM (inactive) | 15.2 µM (inactive) | 19.9 µM (inactive) | 14.3 µM (inactive) |  |  |  |
| CN(CCc1ccccn1)c1nc(=[N+](C)C)ss1 | > 100 µM (inactive) | > 100 µM (inactive) | > 100 µM (inactive) |  | > 100 µM (inactive) | > 100 µM (inactive) | 66.8 µM (inactive) | 38.5 µM (inactive) | > 100 µM (inactive) | > 100 µM (inactive) | > 100 µM (inactive) | > 100 µM (inactive) | 64.1 µM (inactive) | > 100 µM (inactive) | > 100 µM (inactive) | > 100 µM (inactive) | > 100 µM (inactive) |  |  |  |
| O=C(O)C1CCC(=O)N1C(=O)C(Cl)c1ccccc1 (centres undefined) | > 100 µM (inactive) | > 100 µM (inactive) | > 100 µM (inactive) | > 100 µM (inactive) | > 100 µM (inactive) | > 100 µM (inactive) | > 100 µM (inactive) | > 100 µM (inactive) | > 100 µM (inactive) | > 100 µM (inactive) | > 100 µM (inactive) | > 100 µM (inactive) | > 100 µM (inactive) | > 100 µM (inactive) | > 100 µM (inactive) | > 100 µM (inactive) |  |  |  |  |
| CCCCCCCCCCCC(=O)CC(=O)c1c(O)cccc1O | 19.1 µM (inactive) | 23.7 µM (inactive) | 20.4 µM (inactive) | 16.6 µM (inactive) | 19.6 µM (inactive) | 24.9 µM (inactive) | 19.8 µM (inactive) | 17.5 µM (inactive) | 30.4 µM (inactive) | 18.5 µM (inactive) | 15.5 µM (inactive) | 19.6 µM (inactive) | 29.4 µM (inactive) | 19.7 µM (inactive) | 14.1 µM (inactive) |  | 18.5 µM (inactive) |  |  |  |
| CCCC(=O)C(CC)/C(CCC(=O)N(Cc1ccccc1)Cc1ccccc1)=N/NC(=O)C[N+](C)(C)C (centres undefined) | > 100 µM (inactive) | > 100 µM (inactive) | > 100 µM (inactive) | > 100 µM (inactive) | > 100 µM (inactive) |  | > 100 µM (inactive) | > 100 µM (inactive) | > 100 µM (inactive) | 65.2 µM (inactive) | > 100 µM (inactive) |  |  | > 100 µM (inactive) | > 100 µM (inactive) | > 100 µM (inactive) | > 100 µM (inactive) |  |  |  |
| Nc1ccc2n[se]nc2c1 | > 100 µM (inactive) | > 100 µM (inactive) |  | > 100 µM (inactive) | > 100 µM (inactive) | 23.8 µM (inactive) |  | > 100 µM (inactive) | > 100 µM (inactive) | > 100 µM (inactive) | > 100 µM (inactive) | > 100 µM (inactive) | > 100 µM (inactive) | > 100 µM (inactive) | 79.1 µM (inactive) | > 100 µM (inactive) | > 100 µM (inactive) |  |  |  |
| C=CCN1C(=O)C(=O)N(CC=C)C(=O)C1=O | > 100 µM (inactive) | > 100 µM (inactive) | > 100 µM (inactive) | > 100 µM (inactive) | > 100 µM (inactive) | > 100 µM (inactive) | > 100 µM (inactive) | > 100 µM (inactive) | > 100 µM (inactive) | > 100 µM (inactive) | > 100 µM (inactive) | > 100 µM (inactive) | > 100 µM (inactive) | > 100 µM (inactive) |  | > 100 µM (inactive) | > 100 µM (inactive) |  |  |  |
| COc1ccc(C(=O)Nc2ccccc2C#N)cc1 | > 100 µM (inactive) | > 100 µM (inactive) | > 100 µM (inactive) | > 100 µM (inactive) | > 100 µM (inactive) | > 100 µM (inactive) | > 100 µM (inactive) | > 100 µM (inactive) |  | > 100 µM (inactive) | > 100 µM (inactive) | > 100 µM (inactive) | > 100 µM (inactive) |  | > 100 µM (inactive) | > 100 µM (inactive) | > 100 µM (inactive) |  |  |  |
| OCCSCC/C(=N\N=C(/CCSCCO)c1ccccc1)c1ccccc1 | 88.7 µM (inactive) | > 100 µM (inactive) | 31.1 µM (inactive) |  | > 100 µM (inactive) | > 100 µM (inactive) | > 100 µM (inactive) | 52 µM (inactive) | > 100 µM (inactive) | 69.2 µM (inactive) | > 100 µM (inactive) | 39.4 µM (inactive) | > 100 µM (inactive) | 77.4 µM (inactive) | 84.7 µM (inactive) |  | > 100 µM (inactive) |  |  |  |
| C/C(=N/NC(N)=S)C(CN(C)C)C(C1=C(O)c2ccccc2OC1)c1ccccc1 (centres undefined) | > 100 µM (inactive) | > 100 µM (inactive) |  | > 100 µM (inactive) | > 100 µM (inactive) | > 100 µM (inactive) | > 100 µM (inactive) | > 100 µM (inactive) | > 100 µM (inactive) | > 100 µM (inactive) | > 100 µM (inactive) | > 100 µM (inactive) | > 100 µM (inactive) | > 100 µM (inactive) | > 100 µM (inactive) | > 100 µM (inactive) | > 100 µM (inactive) |  |  |  |
| Cn1c(=O)c2c(nc3sc4ccccc4c(=O)n32)n(C)c1=O | > 100 µM (inactive) | > 100 µM (inactive) | > 100 µM (inactive) | > 100 µM (inactive) | > 100 µM (inactive) | > 100 µM (inactive) | > 100 µM (inactive) | > 100 µM (inactive) | > 100 µM (inactive) |  | > 100 µM (inactive) | > 100 µM (inactive) | > 100 µM (inactive) | > 100 µM (inactive) | > 100 µM (inactive) | > 100 µM (inactive) | > 100 µM (inactive) | > 100 µM (inactive) | > 100 µM (inactive) | > 100 µM (inactive) |
| CCOC(=O)C1(NC(=O)OC(C)(C)C)CCc2[nH]oc(=O)c2C1 (centres undefined) | > 100 µM (inactive) | > 100 µM (inactive) | > 100 µM (inactive) | > 100 µM (inactive) | > 100 µM (inactive) | > 100 µM (inactive) | > 100 µM (inactive) | > 100 µM (inactive) | > 100 µM (inactive) |  | > 100 µM (inactive) | > 100 µM (inactive) | > 100 µM (inactive) | > 100 µM (inactive) | > 100 µM (inactive) | > 100 µM (inactive) | > 100 µM (inactive) | > 100 µM (inactive) | > 100 µM (inactive) | > 100 µM (inactive) |
| N=c1c2ccccc2sc2nc3ccccc3n12 | > 100 µM (inactive) | > 100 µM (inactive) | > 100 µM (inactive) |  | > 100 µM (inactive) | > 100 µM (inactive) |  | > 100 µM (inactive) | 72.3 µM (inactive) | 85.1 µM (inactive) | > 100 µM (inactive) |  | > 100 µM (inactive) | > 100 µM (inactive) | > 100 µM (inactive) | > 100 µM (inactive) | > 100 µM (inactive) |  |  |  |
| O=c1[nH]c2nccn2c(Cl)c1Br | 25.2 µM (inactive) | > 100 µM (inactive) | 24.7 µM (inactive) | 32.5 µM (inactive) | 17.9 µM (inactive) | > 100 µM (inactive) | 19.8 µM (inactive) | 23.3 µM (inactive) | 29.6 µM (inactive) |  | 23.4 µM (inactive) | 54.3 µM (inactive) | 19.4 µM (inactive) | 20.2 µM (inactive) | 2.52 µM (inactive) | 76 µM (inactive) | > 100 µM (inactive) | 50.2 µM (inactive) | 42.6 µM (inactive) | 17.5 µM (inactive) |
| Cc1cc(C)c2c(=N)c3ccccc3n(CCCCCCCCn3c4ccccc4c(=N)c4c(C)cc(C)nc43)c2n1 | 1.82 µM (inactive) | 1.23 µM (inactive) | 1.26 µM (inactive) | 0.353 µM (active) | 1.46 µM (inactive) | 1.93 µM (inactive) | 1.76 µM (inactive) | 0.224 µM (active) | 1.73 µM (inactive) |  | 1.89 µM (inactive) | 0.239 µM (active) | 1.73 µM (inactive) | 0.258 µM (active) | 1.75 µM (inactive) | 1.59 µM (inactive) | 1.78 µM (inactive) | 1.38 µM (inactive) | 0.586 µM (active) | 1.84 µM (inactive) |
| C/C(=N\NC(=S)NC1CCCC1)c1ccccn1 | 0.205 µM (active) | < 0.017 µM (active) | 0.0718 µM (active) | < 0.01 µM (active) | < 0.0177 µM (active) | 0.202 µM (active) | < 0.01 µM (active) | < 0.01 µM (active) | 0.1 µM (active) |  | 0.0356 µM (active) | < 0.01 µM (active) | 0.2 µM (active) | < 0.01 µM (active) | 1.35 µM (inactive) | 0.65 µM (active) | 1.02 µM (active) | < 0.01 µM (active) | < 0.01 µM (active) | 1.08 µM (active) |
